Experiments:
[1] = molecular target: cloned human NR1/NR2B ion channels (Homo sapiens (Human), UniProt Q05586+Q13224); experiment: HNR2BC: calcium influx assay on cloned human NR1/NR2B ion channels expressed in HEK cells; format: cell-based; details: HEK cells hNR1/NR2B, 100 μM glutamate + 100 μM glycine, 3 parameter plot
Protocol: HNR2BC: Effects of Test Articles on Cloned Human NR1/NR2B Ion Channels Expressed in Mammalian Cells
The ability of test compounds to act as an antagonist of NR1/NR2B were evaluated with a calcium influx assay (Calcium 5 Assay Kit, Molecular Devices).
For the antagonist assessment, NR1/NR2B was activated with the positive control agonist (Mg^2+-free HBPS+100 μM glutamic acid+100 μM glycine). The effect of each test article to inhibit the signal was examined after agonist stimulation and compared to the positive control antagonist (MK-801).
A HEK cell line, stable transfected with hNR1/NR2B was used. This tetracycline inducible cell line is transfected with GRIN1 (GeneBank accession number NM 007327.2) and GRIN2B (GeneBank accession number NM_000834.3.). The cells were cultured in cell culture flasks with DMEM/F12 supplemented with 10% FCS, 1% PenStrep and a selection of additional antibiotics.
Forty-Eight (48) hours before the assay the cells were plated into 96-well black well, flat clear bottom microtiter plates at a density of 50000 cells/well. Twenty-Four (24) hours later the receptor expression was induced by the addition of 1 μg/ml tetracycline in the presence of 2 mM ketamine and 200 μM 7-CKA. After 24 h of receptor induction the plates were used for the assay.
The medium was removed and the cells were loaded with 200 μl loading buffer (Molecular Devices) in Mg2+-free HBPS containing 100 μM 7-CKA at 37° C. for one (1) hour.
The test compounds were then solubilized in 100% DMSO and diluted to yield eight (8) different concentrations in 100% DMSO. A 96 well drug plate was prepared by diluting with water and glycine/glutamate to a 5-fold of final test concentration. Fluorescence intensity of the cells in the plate was measured in a FlexStation using an excitation wavelength of 485 nm and an emission wavelength of 525 nm. Twenty (20) seconds after starting the recordings the compounds together with the agonists glycine (100 μM) and glutamate (100 μM) were added into the wells and the fluorescence measured for ninety (90) seconds in summary.
The IC50 values provided in the paragraph below were determined using a 3 parameter plot.

hERG-receptor = hERG-receptor (Homo sapiens (Human), UniProt Q12809); experiment: HERGBD: inhibition of specific 3H-Dofetilide binding to the hERG-receptor; details: HEK cell membranes with human ERG, Hill-plot 2-parameter-model
hERG-receptor, sequence (Q12809 whole entry): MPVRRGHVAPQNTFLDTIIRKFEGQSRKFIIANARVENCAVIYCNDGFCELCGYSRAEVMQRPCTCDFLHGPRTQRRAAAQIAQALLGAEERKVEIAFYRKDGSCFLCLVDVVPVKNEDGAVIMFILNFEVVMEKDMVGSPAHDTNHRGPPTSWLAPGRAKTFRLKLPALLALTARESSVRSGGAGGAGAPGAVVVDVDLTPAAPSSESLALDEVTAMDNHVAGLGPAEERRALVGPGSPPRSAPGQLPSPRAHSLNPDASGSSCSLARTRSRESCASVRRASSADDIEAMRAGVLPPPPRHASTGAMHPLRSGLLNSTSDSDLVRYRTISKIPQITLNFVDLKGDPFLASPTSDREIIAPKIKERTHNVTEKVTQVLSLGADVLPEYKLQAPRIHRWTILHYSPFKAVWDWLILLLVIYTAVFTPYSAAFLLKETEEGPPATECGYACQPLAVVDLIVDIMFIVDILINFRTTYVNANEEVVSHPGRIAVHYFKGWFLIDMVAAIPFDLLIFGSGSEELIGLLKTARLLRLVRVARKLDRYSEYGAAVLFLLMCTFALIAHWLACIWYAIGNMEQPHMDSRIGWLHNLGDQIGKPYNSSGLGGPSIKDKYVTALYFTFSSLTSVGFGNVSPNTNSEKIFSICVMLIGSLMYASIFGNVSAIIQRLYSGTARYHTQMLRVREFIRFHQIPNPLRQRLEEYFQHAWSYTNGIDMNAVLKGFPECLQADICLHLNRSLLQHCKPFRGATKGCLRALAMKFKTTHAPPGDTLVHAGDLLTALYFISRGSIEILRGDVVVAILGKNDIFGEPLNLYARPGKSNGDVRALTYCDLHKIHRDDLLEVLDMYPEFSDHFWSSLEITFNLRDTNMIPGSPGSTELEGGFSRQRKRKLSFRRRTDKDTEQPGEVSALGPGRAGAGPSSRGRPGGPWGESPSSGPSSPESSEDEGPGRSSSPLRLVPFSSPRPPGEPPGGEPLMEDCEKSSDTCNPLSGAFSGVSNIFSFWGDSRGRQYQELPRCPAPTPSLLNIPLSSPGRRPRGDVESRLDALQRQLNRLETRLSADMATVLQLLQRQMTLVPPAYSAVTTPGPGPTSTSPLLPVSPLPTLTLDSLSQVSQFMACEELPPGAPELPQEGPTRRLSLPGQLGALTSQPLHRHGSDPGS
In short: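 Membranes from HEK cells stably expressing human ERG incubated 90 min at RT with 1.5 nmol/l 3H-dofetilide in 20 mM HEPES/0.1 mM KCl pH 7.2, inhibitor in 1% DMSO. Nonspecific binding with […] dofetilide; bound ligand separated by filtration and scintillation counted.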

rat NR1/NR2B receptor = rat NR1/NR2B receptor (Rattus norvegicus (Rat), UniProt P35439+Q00960); experiment: RRNR2BB: inhibition of specific binding to the rat NR1/NR2B receptor; details: [3H]-Ifenprodil binding, rat brain membranes, Hill-plot 2-parameter-model
rat NR1/NR2B receptor, sequence (Q00960 27-1482, other chains not shown): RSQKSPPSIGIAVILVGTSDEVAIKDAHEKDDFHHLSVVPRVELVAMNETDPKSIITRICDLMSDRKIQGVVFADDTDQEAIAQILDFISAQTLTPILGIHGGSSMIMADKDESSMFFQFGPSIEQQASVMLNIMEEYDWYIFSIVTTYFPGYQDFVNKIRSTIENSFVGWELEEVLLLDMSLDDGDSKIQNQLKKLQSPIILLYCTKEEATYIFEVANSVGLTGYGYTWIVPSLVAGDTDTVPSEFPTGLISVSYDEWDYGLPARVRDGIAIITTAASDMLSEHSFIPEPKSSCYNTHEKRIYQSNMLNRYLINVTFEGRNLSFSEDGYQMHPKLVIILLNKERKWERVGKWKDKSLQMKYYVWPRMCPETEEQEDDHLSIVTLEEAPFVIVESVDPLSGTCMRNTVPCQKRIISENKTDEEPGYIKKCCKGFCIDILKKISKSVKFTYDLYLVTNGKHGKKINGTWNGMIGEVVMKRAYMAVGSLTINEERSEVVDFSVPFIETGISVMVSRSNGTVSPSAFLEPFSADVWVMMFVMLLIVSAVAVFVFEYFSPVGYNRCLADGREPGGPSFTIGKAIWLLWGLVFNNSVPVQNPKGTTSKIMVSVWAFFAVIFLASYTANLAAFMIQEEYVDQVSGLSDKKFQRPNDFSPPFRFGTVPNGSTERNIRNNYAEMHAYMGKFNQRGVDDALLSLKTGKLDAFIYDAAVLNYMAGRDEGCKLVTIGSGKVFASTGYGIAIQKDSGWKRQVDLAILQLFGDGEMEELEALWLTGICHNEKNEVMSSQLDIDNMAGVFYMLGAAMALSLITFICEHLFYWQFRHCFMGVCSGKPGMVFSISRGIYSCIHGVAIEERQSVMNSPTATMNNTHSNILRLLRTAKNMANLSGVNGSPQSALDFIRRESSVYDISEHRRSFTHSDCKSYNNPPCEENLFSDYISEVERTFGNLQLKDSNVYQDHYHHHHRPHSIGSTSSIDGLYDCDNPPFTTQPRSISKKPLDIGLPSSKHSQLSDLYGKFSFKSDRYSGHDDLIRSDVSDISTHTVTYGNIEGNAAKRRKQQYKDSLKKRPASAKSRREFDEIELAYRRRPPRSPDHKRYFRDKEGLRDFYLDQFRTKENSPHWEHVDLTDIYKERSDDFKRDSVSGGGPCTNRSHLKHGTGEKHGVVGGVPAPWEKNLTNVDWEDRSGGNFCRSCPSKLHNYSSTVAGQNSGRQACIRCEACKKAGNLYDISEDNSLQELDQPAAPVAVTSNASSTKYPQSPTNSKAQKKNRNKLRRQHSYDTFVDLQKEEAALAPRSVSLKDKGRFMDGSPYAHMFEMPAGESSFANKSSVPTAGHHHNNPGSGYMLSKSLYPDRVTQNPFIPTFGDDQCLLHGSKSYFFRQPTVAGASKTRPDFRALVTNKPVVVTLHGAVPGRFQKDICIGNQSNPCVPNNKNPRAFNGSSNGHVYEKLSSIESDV
In short: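 Washed membranes from male Wistar rat forebrain (whole brain minus cerebellum) in 5 mM Tris/1 mM EDTA pH 7.4 used in ifenprodil-site binding, 60 min at 4° C. Nonspecific binding defined with […] CP101.606; bound separated by filtration on PEI-soaked filters. IC50 from Hill plot, 2-parameter model.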

cloned human NR1/NR2B ion channels, sequence (Q13224 27-1484, other chains not shown): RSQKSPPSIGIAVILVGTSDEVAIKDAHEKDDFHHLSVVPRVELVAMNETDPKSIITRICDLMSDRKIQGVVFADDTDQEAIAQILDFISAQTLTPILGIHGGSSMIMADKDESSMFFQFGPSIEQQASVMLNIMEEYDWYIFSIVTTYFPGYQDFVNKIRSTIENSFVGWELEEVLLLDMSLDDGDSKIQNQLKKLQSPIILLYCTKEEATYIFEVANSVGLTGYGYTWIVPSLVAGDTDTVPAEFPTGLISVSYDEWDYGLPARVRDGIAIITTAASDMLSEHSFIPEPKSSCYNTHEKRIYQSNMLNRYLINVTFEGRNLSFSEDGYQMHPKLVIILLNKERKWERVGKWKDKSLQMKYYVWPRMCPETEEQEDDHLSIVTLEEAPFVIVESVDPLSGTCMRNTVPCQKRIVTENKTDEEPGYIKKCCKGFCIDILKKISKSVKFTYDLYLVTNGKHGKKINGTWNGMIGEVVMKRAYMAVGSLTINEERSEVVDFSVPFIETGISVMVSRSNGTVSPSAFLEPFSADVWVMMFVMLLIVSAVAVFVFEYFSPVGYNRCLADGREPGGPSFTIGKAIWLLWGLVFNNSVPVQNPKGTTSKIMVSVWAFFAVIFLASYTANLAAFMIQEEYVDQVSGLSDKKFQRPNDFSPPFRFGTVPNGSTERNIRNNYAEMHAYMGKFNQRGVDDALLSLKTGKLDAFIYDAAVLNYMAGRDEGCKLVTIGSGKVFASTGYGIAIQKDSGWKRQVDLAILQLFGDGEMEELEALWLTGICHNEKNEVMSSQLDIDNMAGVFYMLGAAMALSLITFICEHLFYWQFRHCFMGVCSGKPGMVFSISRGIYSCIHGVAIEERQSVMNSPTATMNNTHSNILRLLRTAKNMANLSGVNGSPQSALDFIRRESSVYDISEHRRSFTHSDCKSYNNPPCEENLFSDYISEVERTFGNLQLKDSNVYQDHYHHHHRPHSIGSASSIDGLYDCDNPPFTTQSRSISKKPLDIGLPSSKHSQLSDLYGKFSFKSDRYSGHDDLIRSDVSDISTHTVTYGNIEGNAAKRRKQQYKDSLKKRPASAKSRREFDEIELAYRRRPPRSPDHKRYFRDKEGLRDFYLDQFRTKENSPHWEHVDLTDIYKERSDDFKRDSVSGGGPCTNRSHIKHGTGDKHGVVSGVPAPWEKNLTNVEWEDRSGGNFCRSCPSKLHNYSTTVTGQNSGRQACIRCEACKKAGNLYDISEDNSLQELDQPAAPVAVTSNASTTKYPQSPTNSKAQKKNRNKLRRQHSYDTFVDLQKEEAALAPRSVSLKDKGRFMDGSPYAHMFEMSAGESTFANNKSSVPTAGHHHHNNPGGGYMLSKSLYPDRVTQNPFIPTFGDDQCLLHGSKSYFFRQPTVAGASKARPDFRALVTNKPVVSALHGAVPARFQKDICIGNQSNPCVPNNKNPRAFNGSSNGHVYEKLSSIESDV

Structure (SMILES): CCc1nccn1Cc1cn(-c2ccc(F)c(Cl)c2)nn1 [Example 42, 1-(3-Chloro-4-fluoro-phenyl)-4-(2-ethyl-imidazol-1-ylmethyl)-1H-[1,2,3]triazole]
- IC50 [1]: 3.17 µM

Structure (SMILES): CC(C)c1nccn1Cc1cn(-c2ccc(Cl)c(OC(F)F)c2)nn1 [Example 97, 1-(4-Chloro-3-difluoromethoxy-phenyl)-4-(2-isopropyl-imidazol-1-ylmethyl)-1H-[1,2,3]triazole]
- IC50 [1]: 0.58 µM

Structure (SMILES): Nc1nccn1Cc1cn(-c2cc(F)cc(C(F)F)c2)nn1 [Example 111, 4-(2-amino-imidazol-1-ylmethyl)-1-(3-fluoro-5-difluoromethyl-phenyl)-1H-[1,2,3]triazole]
- IC50 [1]: 3.42 µM
- IC50 (hERG-receptor): 3.29 µM

Structure (SMILES): Fc1ccc(-n2cc(Cc3cc[nH]n3)nn2)cc1C(F)F [Example 115, 1-(3-difluoromethyl-4-fluoro-phenyl)-4-(1H-pyrazol-3-ylmethyl)-1H-[1,2,3]triazole]
- IC50 [1]: 10.5 µM

Structure (SMILES): Cc1ccc(C(=O)c2nccn2Cc2cn(-c3ccc(Cl)cc3)nn2)cc1 [Example 116, [1-[[1-(4-chlorophenyl)triazol-4-yl]methyl]imidazol-2-yl]-(p-tolyl)methanone]
- IC50 [1]: 22.4 µM
- IC50 (rat NR1/NR2B receptor): > 5 µM

— US9981950B2, “Triazoles as NR2B receptor inhibitors” (Janssen Pharmaceuticals, Inc., priority 2014, dated 2018)
